# According to patent publication US6555566B2, “Methods and materials for treating and preventing inflammation of mucosal tissue” (Mayo Foundation for Medical Education and Research, priority 1997, dated 2003):
# Where “and” joins values, the source holds several entries; their conditions need not be identical. Equal values may be shown once.
# Columns and labels:
# [1] = system: non-invasive fungus-induced rhinosinusitis patients; test: Amphotericin B nasal irrigation study, three month follow-up of 53 patients; type: in vivo, human
# Description: In addition to patient interviewing, CT scan analysis, visual examination, and fungal culture analysis, two types of evaluations were used to score the success of the treatment: an endoscopic evaluation and a patient symptom evaluation.
# [2] = system: non-invasive fungus-induced rhinosinusitis patients; test: Patient data collected during a one week period (amphotericin B nasal irrigations); type: in vivo, human; parameters: Endoscopy Score B / Endoscopy Score A / Symptom Score B: scale not given here
# Description: Only previously seen patients that were instructed to use the antifungal amphotericin B nasal irrigations were entered into this study.
# During a one week period, twenty patients returned to the physician's office (Table II). The average age of the returning patients was 47 years (range 16-74 years). The patients were using the amphotericin B irrigations for an average duration of about six months (range 1-16 months). […] In addition, some patients were using topical and systemic steroid therapy. Further, some patients were using an antibiotic nasal irrigation in addition to the antifungal irrigations. The antibacterial solution contained 80 mg gentamicin per L saline (Wilson's solution). Some patients mixed the antibacterial solution with the antifungal solution and then performed the nasal irrigations while others used each solution separately in a sequential manner. Some patients also had other diseases including asthma (15 of the 20 patients) and colitis (2 of the 20 patients).
# [3] = system: non-invasive fungus-induced rhinosinusitis patients; test: Amphotericin B irrigations in patients without previous nasal surgery; type: in vivo, human
# Description: A person was diagnosed with non-invasive fungus-induced rhinosinusitis and instructed to perform amphotericin B irrigations twice a day.
# A person was diagnosed with non-invasive fungus-induced rhinosinusitis and instructed to perform amphotericin B irrigations twice a day, which was later increased to four times a day.
# A person was diagnosed with non-invasive fungus-induced rhinosinusitis and instructed to perform amphotericin B irrigations twice a day. This patient had been given intramuscular steroid shots every 3 to 8 months with the last shot being administered about seven months prior to starting the amphotericin B irrigations.
# [4] = system: non-invasive fungus-induced rhinosinusitis patient; test: Eosinophil count in mucosal biopsies after antifungal treatment; type: in vivo, human; conditions: after nine months of irrigations twice a day
# Description: A person was diagnosed with non-invasive fungus-induced rhinosinusitis and instructed to perform amphotericin B irrigations twice a day. After nine months of amphotericin B irrigations, the patient underwent sinus surgery for further improvement. During the surgery mucosal biopsies were collected and the eosinophil count compared to the those obtained from biopsies collected from the patient during a surgery prior to the antifungal treatment.
# [5] = system: non-invasive fungus-induced rhinosinusitis patients; test: Itraconazole nasal irrigations in rhinosinusitis patients; type: in vivo, human; parameters: symptom score before itraconazole irrigations / symptom score after itraconazole irrigations / endoscopic score, right side, before / endoscopic score, right side, after / endoscopic score, left side, before / endoscopic score, left side, after: scale not given here
# Protocol: Three non-invasive fungus-induced rhinosinusitis patients (person, person, and person) were instructed to perform nasal irrigation with an itraconazole solution. The itraconazole solution contained about 100 mg of itraconazole per L of solution (10% PEG-400 in sterile water) and was prepared as described herein. […] Each patient reported marked improvement in symptoms within two weeks of starting the itraconazole irrigations (symptom scores: −1 to +2 and −1 to +1).
# After treatment with itraconazole, that patient reported symptom improvement (symptom score: from −1 to 0).
# [6] = system: chronic asthma patients; test: Chronic asthma symptoms in patients of the amphotericin B irrigation study
# Protocol: One hundred and thirty-two consecutive rhinosinusitis patients were entered into a study to evaluate the use of an antifungal agent to treat non-invasive fungus-induced rhinosinusitis. […] The 125 non-invasive fungus-induced rhinosinusitis patients were started on an antifungal treatment of about 20 mL of an amphotericin B solution per nostril, two to four times daily for at least three months. The concentration of the amphotericin B solution was about 100 mg per liter of saline or water. A 20 mL bulb was used by the patient to mucoadminister the amphotericin B solution into the patient's nasal-paranasal anatomy. Data were compiled for 53 of the patients who had returned for their three month follow-up analysis.
# [7] = system: rhinosinusitis patient; test: Single patient, one-sided then two-sided amphotericin B irrigation with surgery, RAST to Alternaria
# Protocol: Only the left nasal-paranasal side, however, received surgery as well as intra-operative and post-operative treatment with about 20 mL of an amphotericin B solution (100 mg/L) two to four times daily.
# [8] = after treatment, three month follow-up
# [9] = after antifungal treatment, nasal irrigations 1-16 months, 1-2x day, one line per patient, r26 and r28 switched to itraconazole for the last month, r13 stopped 8 months earlier
# [10] = before antifungal treatment (baseline), one line per patient
# [11] = sixteen days after starting itraconazole irrigations, one patient
smiles,measurement,setting,value
C[C@@H]1[C@H](O)[C@@H](C)/C=C/C=C/C=C/C=C/C=C/C=C/C=C/[C@H](O[C@@H]2O[C@H](C)[C@@H](O)[C@H](N)[C@@H]2O)C[C@@H]2O[C@](O)(C[C@@H](O)C[C@@H](O)[C@H](O)CC[C@@H](O)C[C@@H](O)CC(=O)O[C@H]1C)C[C@H](O)[C@H]2C(=O)O [amphotericin B],patients going from endoscopic evaluation stage 2 or 3 to stage 0,"[1]; after three months, about 20 mL of 100 mg/L solution per nostril, two to four times daily",33 of the 53
same,patients giving themselves symptom stage 0 (baseline/no change),[1]; [8],six of the 53
same,patients giving themselves symptom stage 1 (good/improved),[1]; [8],three of the 53
same,patients giving themselves symptom stage 2 (very good/free of symptoms),[1]; [8],44 of the 53
same,patients that did not respond to the treatment (of 53),[1]; endoscopic evaluation after three months,nine
same,non-responding patients whose mucus fungal organisms were resistant to the agent,[1]; five of the nine non-responders had mucus samples available,all five
same,CT scan finding after treatment,"[1]; one patient with bilateral rhinosinusitis, no recent surgery, no steroids, 20 mL of 100 mg/L per nostril two times daily, four months",complete disappearance of opacity and symptoms characteristic of rhinosinusitis
same,number of different fungal species in mucus after versus before treatment,"[1]; several patients, fungal organism culturing",remarkably reduced
same,Endoscopy Score A,[2]; [9],0 (10×) and 3 (5×) and 1 (2×)
same,Symptom Score A,[2]; [9],+1 (6×) and +2 (6×) and 0 (6×) and −2 and 1
same,Endoscopy Score B,[2]; [10],1 (3×) and 2 (5×) and 3 (10×) and 0
same,Symptom Score B,[2]; [10],−1 (14×) and −2 (6×)
same,"endoscopic evaluation, overall outcome of the twenty patients","[2]; nasal irrigations, average about six months",most patients had an observable improvement
same,symptom score before treatment,"[3]; baseline, no previous nasal surgery, one line per patient",−1
same,endoscopic score after treatment,"[3]; irrigations twice a day (b227 later four times a day) for fourteen, sixteen, four months",0
same,"eosinophil count in mucosal biopsies, all sinuses except the frontal",[4],< 5%
same,eosinophil count in the frontal sinus biopsy,"[4]; frontal sinus obstructed, presumably not reached",10%
same,local reaction to nasal irrigations,[5]; one patient (third patient),burning sensation
same,patients no longer exhibiting asthma symptoms who stopped taking their asthma medication,[6]; after starting treatment,26 of the 28
same,asthmatic patients declaring improvement or complete elimination of asthma symptoms,[6]; after three months of nasal irrigation treatment of Example 2,28 of the 37
same,patients with improved pulmonary function test after versus before treatment,[6]; four of the 28 improved patients tested,all four
same,patients taking steroids after starting treatment,[6]; of twenty-three patients on systemic steroids for asthma before,none
same,RAST reading to Alternaria,[7]; after surgery on the right side and irrigation of both sides for about seven weeks,4.47 KU/L
same,state of the treated left paranasal sinuses,"[7]; at every post-operative visit, surgery plus irrigation of the left side",clear of disease
same,RAST reading to Alternaria,[7]; before treatment (baseline),6.23 KU/L
same,RAST reading to Alternaria,"[7]; only left side operated and irrigated (about 20 mL, 100 mg/L, two to four times daily), eight to ten weeks after symptoms disappeared on the left",7.16 KU/L
same,patient state by CT scan,"[7]; six months after the last surgery, both sides irrigated",symptom-free and disease-free
same,RAST reading to Alternaria,"[7]; six months post-operation, only left side treated, rhinosinusitis diagnosed on the right",10.0 KU/L
CCC(C)n1ncn(-c2ccc(N3CCN(c4ccc(OCC5COC(Cn6cncn6)(c6ccc(Cl)cc6Cl)O5)cc4)CC3)cc2)c1=O (centres unmarked) [itraconazole],symptom score after itraconazole irrigations,"[5]; about 100 mg per L (10% PEG-400 in sterile water), within two weeks, patients not responding to amphotericin B, one line per patient",+2 and +1 and 0
same,symptom score before itraconazole irrigations,"[5]; baseline, one line per patient",−1
same,"endoscopic score, left side, before","[5]; baseline, one patient",1
same,"endoscopic score, right side, before","[5]; baseline, one patient",1
same,local reaction to nasal irrigations,"[5]; human, in vivo",did not have any adverse local reaction
same,"endoscopic score, left side, after",[5]; [11],1
same,"endoscopic score, right side, after",[5]; [11],0
